Patent US8722661B2, “Pyrrolopyrimidone and pyrrolopyridone inhibitors of tankyrase” (Genentech, Inc., priority 2012, dated 2014)

Assays:
[1] = target: T1, Tankyrase 1 (TNKS1) (Homo sapiens, UniProt O95271); experiment: μHTS-TNKS-IWR2 TR-FRET binding assay (TNKS1)
T1 construct: construct: 1088-1327, 1266M
Protocol: (§1) μHTS-TNKS-IWR2TR-FRET Binding Assay
(§2) (10 μL/well in BD1536-well plate, a single point)
Reagents and Stock Solutions
(§3) Biotin-IWR2: 10 mM Biotin-IWR2 stock in DMSO, stored at −20° C.
Assay buffer 1a (AB 1a) for TNKS dilution: 50 mM Tris, pH 7.4, 100 mM sodium chloride solution, 1 mM magnesium chloride solution, 1 mM DL-dithiothreitol solution, 0.2 mg/mL bovine serum albumin solution, 0.025% NP-40.
Assay buffer 1b (AB 1b) for Biotin-IWR2 dilution: 50 mM Tris, pH 7.4, 100 mM sodium chloride solution, 1 mM magnesium chloride solution, 1 mM DL-dithiothreitol solution, 0.2 mg/mL bovine serum albumin solution, 0.05% NP-40
Assay buffer 1c (AB 1c) for compound dilution: 50 mM Tris, pH 7.4, 100 mM sodium chloride solution, 1 mM magnesium chloride solution, 1 mM DL-dithiothreitol solution, 0.2 mg/mL bovine serum albumin solution
Assay buffer 2 (AB2) for Eu/APC: 50 mM Tris, pH 7.4, 100 mM sodium chloride solution, 1 mM magnesium chloride solution, 0.2 mg/mL bovine serum albumin solution
Reagent Stock Solution Preparation
Prepare BLANK well stock solution: 5% DMSO/AB1b buffer
Prepare TNKS1 stock solution (5× stock): 300 nM TNKS in AB1a buffer
(§4) Transfer 3 μL/well above solution (solution 1,2,3) to an empty assay plate (BD1536-well plate) as follows:
TOTL and cpd wells: Solution 1 (Biotin-IWR2):
BLNK wells: Solution 2 (No Biotin-IWR2):
POSITIVE CONTROL wells: Solution 3 (Biotin-IWR2+XAV939)
(§5) Transfer 3 μL/well of the above diluted compound solutions or compound dilution buffer to the above assay plate.
(§6) Add 2 μL/well of 300 nM TNKS stock solution (4) to every well in the above assay plate.
Centrifuge the assay plate at 2100 rpm for 2 minutes.
(§7) Incubate the assay plate at 26° C. for 30 minutes.
(§8) Incubate the assay plate at 26° C. for 60 minutes.

[2] = target: T2, tankyrase 2 (His6-TNKS2) (Homo sapiens, UniProt Q9H2K2); experiment: μHTS-TNKS-IWR2 TR-FRET binding assay with His6-TNKS2 in place of TNKS1; conditions: Table I
T2 construct: His6-tankyrase 2 (construct: 934-1166)
T2 sequence (Q9H2K2 934-1166): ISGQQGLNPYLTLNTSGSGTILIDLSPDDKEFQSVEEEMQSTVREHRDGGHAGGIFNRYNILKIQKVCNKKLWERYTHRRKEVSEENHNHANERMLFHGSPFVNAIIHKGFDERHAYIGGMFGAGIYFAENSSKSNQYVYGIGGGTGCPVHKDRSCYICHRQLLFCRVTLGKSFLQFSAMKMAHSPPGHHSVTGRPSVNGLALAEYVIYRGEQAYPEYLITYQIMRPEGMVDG
Protocol: as §1, §2
(§9) Alternatively, in place of His6-TNKS1 can use either His6-tankyrase 2 (construct: 934-1166) (His6-TNKS2) or His6-PARP1 (full length).
as §3
Positive control: 10 mM XAV 939 in DMSO, stored at −20° C.
(§10) Prepare Biotinylated IWR2 stock solution (3.33× stock) for TOTL and cpd wells: 200 nM Biotin-IWR2 in 5% DMSO/AB1b buffer
(§11) Prepare POSITIVE CONTROL well stock solution (3.33× stock): 200 nM XAV939 in 200 nM Biotin-IWR2/5% DMSO/AB1b buffer
(§12) (Alternatively, use TNKS2 or PARP1 stock solutions.)
(§13) Prepare Eu/APC stock solution (5× stock): 3.5 nM Eu-SA/50 nM APC-His6Ab in AB2 buffer
(§14) Add 25 μL/well 1.5% DMSO/AB1c buffer in each compound well to the compound concentration at 74 μM in 8.8% DMSO/AB1c buffer or in the 2 μL DMSO CONTROL wells (BLANK, TOTAL and POSITIVE wells) in the compound plate.
as §4, §5, §6, §7, §8
(§15) Read the assay plate immediately at excitation wavelength of 330 nm and emission wavelength of […] in time resolved fluorescence mode.
(§16) Representative compound data for assays are listed below in Table I. Values are in uM.

[3] = target: T3, PARP1 (His6-PARP1, full length) (Homo sapiens, UniProt P09874); experiment: μHTS-TNKS-IWR2 TR-FRET binding assay with His6-PARP1 in place of TNKS1; conditions: Table I
T3 construct: His6-PARP1 (full length)
T3 sequence (P09874 whole entry): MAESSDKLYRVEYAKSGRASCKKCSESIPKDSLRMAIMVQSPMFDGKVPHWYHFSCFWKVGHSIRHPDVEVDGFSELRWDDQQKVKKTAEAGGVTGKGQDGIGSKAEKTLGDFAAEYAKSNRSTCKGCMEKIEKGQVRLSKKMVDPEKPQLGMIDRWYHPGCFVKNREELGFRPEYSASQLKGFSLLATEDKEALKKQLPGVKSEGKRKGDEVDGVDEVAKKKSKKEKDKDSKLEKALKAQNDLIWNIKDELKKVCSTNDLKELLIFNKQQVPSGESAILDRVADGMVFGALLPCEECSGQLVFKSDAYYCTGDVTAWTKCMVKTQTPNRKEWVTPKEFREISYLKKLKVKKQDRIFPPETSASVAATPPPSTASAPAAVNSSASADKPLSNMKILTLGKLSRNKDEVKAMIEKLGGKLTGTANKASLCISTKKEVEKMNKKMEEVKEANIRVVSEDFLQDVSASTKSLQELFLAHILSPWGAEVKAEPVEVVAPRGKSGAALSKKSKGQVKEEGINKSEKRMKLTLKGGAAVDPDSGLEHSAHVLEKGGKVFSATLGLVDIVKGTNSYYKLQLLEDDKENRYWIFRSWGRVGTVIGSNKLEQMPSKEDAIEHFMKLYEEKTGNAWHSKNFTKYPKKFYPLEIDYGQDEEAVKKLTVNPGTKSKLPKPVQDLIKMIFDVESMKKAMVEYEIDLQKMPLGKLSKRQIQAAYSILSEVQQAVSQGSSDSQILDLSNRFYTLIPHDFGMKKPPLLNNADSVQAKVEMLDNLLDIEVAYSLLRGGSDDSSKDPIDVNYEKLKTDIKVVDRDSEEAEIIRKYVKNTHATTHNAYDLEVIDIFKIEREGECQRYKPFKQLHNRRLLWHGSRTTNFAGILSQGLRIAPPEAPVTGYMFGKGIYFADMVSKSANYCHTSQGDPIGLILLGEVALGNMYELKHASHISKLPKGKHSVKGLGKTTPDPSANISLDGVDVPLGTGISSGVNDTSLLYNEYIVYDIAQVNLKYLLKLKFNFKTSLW
Protocol: as §1, §2, §9, §3
Positive control: 10 mM […] in DMSO, stored at −20° C.
as §10, §11, §12, §13, §14, §4, §5, §6, §7, §8, §15, §16

T1 sequence (O95271 1088-1327): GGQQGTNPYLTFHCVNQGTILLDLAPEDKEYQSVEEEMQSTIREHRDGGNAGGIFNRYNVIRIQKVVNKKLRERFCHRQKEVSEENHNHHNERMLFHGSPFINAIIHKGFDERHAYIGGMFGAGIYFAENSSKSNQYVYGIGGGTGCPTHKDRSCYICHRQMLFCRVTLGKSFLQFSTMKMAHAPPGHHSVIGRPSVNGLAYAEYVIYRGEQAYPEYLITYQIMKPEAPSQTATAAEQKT

Compound	IC50 [1]	IC50 [2]	IC50 [3]
Cn1ccc2c(=O)[nH]c(N3CCN(c4ccc(Cl)c(Cl)c4)CC3)nc21 [Example 26, 2-[4-(3,4-Dichloro-phenyl)-piperazin-1-yl]-7-methyl-3,7-dihydro-pyrrolo[2,3-d]pyrimidin-4-one]	204 nM	153 nM	1250 nM
C=CCCn1ccc2c(=O)[nH]c(N3CCN(c4ccccc4Cl)CC3)nc21 [Example 27, 7-But-3-enyl-2-[4-(2-chloro-phenyl)-piperazin-1-yl]-3,7-dihydro-pyrrolo[2,3-d]pyrimidin-4-one]	5670 nM	6790 nM	> 50000 nM
Cn1ccc2c(=O)[nH]c(N3CCN(c4cnccn4)CC3)nc21 [Example 31, 7-Methyl-2-(2,3,5,6-tetrahydro-[1,2′]bipyrazinyl-4-yl)-3,7-dihydro-pyrrolo[2,3-d]pyrimidin-4-one]	155 nM	133 nM	318 nM
Cn1ccc2c(=O)[nH]c(N3C[C@@H]4C[C@H]3CN4c3cccc(F)c3)nc21 [Example 33, 2-[(1S,4S)-5-(3-Fluoro-phenyl)-2,5-diaza-bicyclo[2.2.1]hept-2-yl]-7-methyl-3,7-dihydro-pyrrolo[2,3-d]pyrimidin-4-one]	6180 nM	6080 nM	1120 nM
CCn1ccc2c(=O)[nH]c(N3CCN(c4ccccc4F)CC3)cc21 [Example 36, 1-Ethyl-6-[4-(2-fluoro-phenyl)-piperazin-1-yl]-1,5-dihydro-pyrrolo[3,2-c]pyridin-4-one]	273 nM	251 nM	21000 nM
Cn1ccc2c(=O)[nH]c(-c3cccnc3)nc21 [Example 41, 7-Methyl-2-pyridin-3-yl-3,7-dihydro-pyrrolo[2,3-d]pyrimidin-4-one]	764 nM	568 nM	307 nM
Cc1ccc(-c2nc3c(ccn3C)c(=O)[nH]2)cn1 [Example 42, 7-Methyl-2-(6-methyl-pyridin-3-yl)-3,7-dihydro-pyrrolo[2,3-d]pyrimidin-4-one]	228 nM	235 nM	166 nM
Cn1cc(-c2cc3c(ccn3C)c(=O)[nH]2)cn1 [Example 47, 1-Methyl-6-(1-methyl-1H-pyrazol-4-yl)-1,5-dihydro-pyrrolo[3,2-c]pyridin-4-one]	164 nM	135 nM	292 nM
C=CCCn1ccc2c(=O)[nH]c(-c3ccc(C(F)(F)F)cc3)nc21 [Example 49, 7-But-3-enyl-2-(4-trifluoromethyl-phenyl)-3,7-dihydro-pyrrolo[2,3-d]pyrimidin-4-one]	1280 nM	1360 nM	> 50000 nM
CCn1ccc2c(=O)[nH]c(-c3ccc(C(F)(F)F)cc3)nc21 [Example 50, 7-Ethyl-2-(4-trifluoromethyl-phenyl)-3,7-dihydro-pyrrolo[2,3-d]pyrimidin-4-one]	176 nM	163 nM	> 50000 nM
CCCn1ccc2c(=O)[nH]c(-c3ccc(C(F)(F)F)cc3)nc21 [Example 51, 7-Propyl-2-(4-trifluoromethyl-phenyl)-3,7-dihydro-pyrrolo[2,3-d]pyrimidin-4-one]	535 nM	640 nM	> 50000 nM

The next compounds have a lower IC50 [1] than those just listed; values first:

IC50 [1]	IC50 [2]	IC50 [3]	Compound
129 nM	90 nM	229 nM	Cn1ccc2c(=O)[nH]c(N3CCN(c4ccc(C#N)cn4)CC3)nc21 [Example 32, 6-[4-(7-Methyl-4-oxo-4,7-dihydro-3H-pyrrolo[2,3-d]pyrimidin-2-yl)-piperazin-1-yl]-nicotinonitrile]
123 nM	132 nM	> 50000 nM	CCn1ccc2c(=O)[nH]c(-c3ccc(C(F)(F)F)cc3)cc21 [Example 46, 1-Ethyl-6-(4-trifluoromethyl-phenyl)-1,5-dihydro-pyrrolo[3,2-c]pyridin-4-one]
117 nM	109 nM	289 nM	CCOc1ccc(-c2nc3c(ccn3C)c(=O)[nH]2)cn1 [Example 40, 2-(6-Ethoxy-pyridin-3-yl)-7-methyl-3,7-dihydro-pyrrolo[2,3-d]pyrimidin-4-one]
110 nM	217 nM	1130 nM	O=c1[nH]c(-c2ccc(C(F)(F)F)cc2)nc2[nH]ccc12 [Example 37, 2-(4-Trifluoromethyl-phenyl)-3,7-dihydro-pyrrolo[2,3-d]pyrimidin-4-one]
110 nM	143 nM	1180 nM	Cn1ccc2c(=O)[nH]c(-c3ccc(C#N)cc3)nc21 [Example 43, 4-(7-Methyl-4-oxo-4,7-dihydro-3H-pyrrolo[2,3-d]pyrimidin-2-yl)-benzonitrile]
88 nM	84 nM	93.3 nM	Cn1ccc2c(=O)[nH]c(-c3ccc(C(F)(F)F)nc3)nc21 [Example 44, 7-Methyl-2-(6-trifluoromethyl-pyridin-3-yl)-3,7-dihydro-pyrrolo[2,3-d]pyrimidin-4-one]
54 nM	58 nM	854 nM	COc1ccc(-c2nc3c(ccn3C)c(=O)[nH]2)cc1 [Example 39, 2-(4-Methoxy-phenyl)-7-methyl-3,7-dihydro-pyrrolo[2,3-d]pyrimidin-4-one]
51 nM	59 nM	1630 nM	Cn1ccc2c(=O)[nH]c(N3CCN(c4ccccc4F)CC3)cc21 [Example 35, 6-[4-(2-Fluoro-phenyl)-piperazin-1-yl]-1-methyl-1,5-dihydro-pyrrolo[3,2-c]pyridin-4-one]
43 nM	45 nM	732 nM	Cn1ccc2c(=O)[nH]c(N3CCN(c4ccccc4)CC3)nc21 [Example 29, 7-Methyl-2-(4-phenyl-piperazin-1-yl)-3,7-dihydro-pyrrolo[2,3-d]pyrimidin-4-one]
43 nM	43 nM	4700 nM	Cn1ccc2c(=O)[nH]c(N3CCC(c4ccc(F)cc4)CC3)nc21 [Example 48, 2-[4-(4-Fluoro-phenyl)-piperidin-1-yl]-7-methyl-3,7-dihydro-pyrrolo[2,3-d]pyrimidin-4-one]
40 nM	80 nM	3280 nM	Cn1ccc2c(=O)[nH]c(N3CCN(c4ccccc4F)CC3)nc21 [Example 28, 2-[4-(2-Fluoro-phenyl)-piperazin-1-yl]-7-methyl-3,7-dihydro-pyrrolo[2,3-d]pyrimidin-4-one]
40 nM	39 nM	842 nM	Cn1ccc2c(=O)[nH]c(-c3ccc(C(F)(F)F)cc3)cc21 [Example 45, 1-Methyl-6-(4-trifluoromethyl-phenyl)-1,5-dihydro-pyrrolo[3,2-c]pyridin-4-one]
38 nM	45 nM	785 nM	Cn1ccc2c(=O)[nH]c(-c3ccc(C(F)(F)F)cc3)nc21 [Example 38, 7-Methyl-2-(4-trifluoromethyl-phenyl)-3,7-dihydro-pyrrolo[2,3-d]pyrimidin-4-one]
31 nM	33 nM	1400 nM	Cn1ccc2c(=O)[nH]c(N3CCN(c4ccccc4Cl)CC3)nc21 [Example 30, 2-[4-(2-Chloro-phenyl)-piperazin-1-yl]-7-methyl-3,7-dihydro-pyrrolo[2,3-d]pyrimidin-4-one]
25 nM	24 nM	1370 nM	Cn1ccc2c(=O)[nH]c(N3CCN(c4c(Cl)cncc4Cl)CC3)nc21 [Example 34, 2-[4-(3,5-Dichloro-pyridin-4-yl)-piperazin-1-yl]-7-methyl-3,7-dihydro-pyrrolo[2,3-d]pyrimidin-4-one]
